Patent publication US20230065953A1, “NOVEL HETEROARYL-TRIAZOLE COMPOUNDS AS PESTICIDES” (Bayer Aktiengesellschaft, priority 2019, published 2023)

Key:
Format in all cases: in vivo
[1] = test system: Rhipicephalus microplus larvae (strain Parkhurst, resistant against synthetic pyrethroids); assay: Rhipicephalus (Boophilus) microplus in-vitro contact test, larval cattle tick; details: 5 μg/cm^2 (=500 g/ha), after 48 hours, read-out: efficacy (larvae dead or moribund)
Summary of the method: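 Larvae exposed by contact to a dried acetone film on glass; a 900 ppm solution yields 5 μg/cm^2. Scoring after 48 h at 27° C. counts dead plus moribund larvae as efficacy.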

[2] = test system: adult engorged female ticks (Rhipicephalus microplus); assay: Rhipicephalus (Boophilus) microplus injection test; details: 168 h, 4 μg/animal, egg deposition after 7 days, read-out: efficacy (infertile eggs)
Experimental: Rhipicephalus (Boophilus) Microplus—Injection Test
(§1) Solvent: dimethyl sulfoxide
To produce a suitable preparation of active compound, 10 mg of active compound are dissolved in 0.5 mL solvent, and the concentrate is diluted with solvent to the desired concentration.
Five adult engorged female ticks (Rhipicephalus microplus) are injected with 1 μL compound solution into the abdomen. The ticks are transferred into replica plates and incubated in a climate chamber.
After 7 days egg deposition of fertile eggs is monitored. Eggs where fertility is not visible are stored in a climate chamber till hatching after about 42 days. An efficacy of 100% means all eggs are infertile; 0% means all eggs are fertile.

[3] = test system: adult unfed cat fleas (Ctenocephalides felis); assay: Ctenocephalides felis oral test; details: 48 h
Experimental: Ctenocephalides felis—Oral Test
as §1
To produce a suitable preparation of active compound, 10 mg of active compound are dissolved in 0.5 mL solvent, and the concentrate is diluted with cattle blood to the desired concentration.
Approximately 20 adult unfed cat fleas (Ctenocephalides felis) are placed in flea chambers. The blood chamber, sealed with parafilm on the bottom, are filled with cattle blood supplied with compound solution and placed on the gauze covered top of the flea chamber, so that the fleas are able to suck the blood. The blood chamber is heated to 37° C. whereas the flea chamber is kept at room temperature.
After 2 days mortality in % is determined. 100% means all the fleas have been killed; 0% means none of the fleas have been killed.

[4] = test system: adult brown dog ticks (Rhipicephalus sanguineus); assay: Rhipicephalus sanguineus in-vitro contact test with adult brown dog ticks; details: 5 μg/cm^2 (=500 g/ha), after 48 hours, read-out: efficacy (ticks dead or moribund)
Experimental: Rhipicephalus sanguineus—In-Vitro Contact Tests with Adult Brown Dog Ticks
(§2) 9 mg compound is solved in 1 mL acetone and diluted with acetone to the desired concentration. 250 μL of the test solution is filled in 25 mL glass test tubes and homogeneously distributed on the inner walls by rotation and tilting on a shaking device (2 h at 30 rpm). With a compound concentration of 900 ppm, an inner surface of 44.7 cm^2 and a homogeneous distribution, a dose of 5 μg/cm^2 is achieved.
After the solvent has evaporated, each test tube is filled with 5-10 adult brown dog ticks (Rhipicephalus sanguineus), closed with a perforated lid and incubated in a lying position at room temperature and relative humidity. After 48 hours efficacy is determined. The ticks are patted on the ground of the tubes and are incubated on a heating plate at 45-50° C. for at most 5 minutes. Immotile or uncoordinated moving ticks, which are not able to escape the heat by climbing upwards, are marked as dead or moribund.
An efficacy of 100% means all ticks are dead or moribund; 0% means no ticks are dead or moribund.

[5] = test system: larvae of the banded cucumber beetle (Diabrotica balteata); assay: Diabrotica balteata spray test; details: 168 h, 100 g/ha (=32 μg/well), wheat seeds, after 7 days, read-out: efficacy (seedling growth)
Summary of the method: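 Wheat seeds germinated 1 day on agar were sprayed with compound in acetone/dimethylformamide with alkylarylpolyglycol ether emulsifier, diluted in emulsifier-containing water. Each unit then received 10-20 larvae, and % efficacy was scored after 7 days.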

[6] = test system: fall armyworm larvae (Spodoptera frugiperda); assay: Spodoptera frugiperda spray test (maize leaf sections); details: 168 h
Summary of the method: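 Maize leaf sections sprayed with compound in acetone/dimethylformamide, diluted in water with 1000 ppm alkylarylpolyglycol ether emulsifier. Dried sections infested with fall armyworm larvae. Mortality (%) scored after 7 days; 100% = all caterpillars killed.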

[7] = test system: adult cat fleas (Ctenocephalides felis); assay: Ctenocephalides felis in-vitro contact test, adult cat flea; details: 5 μg/cm^2 (=500 g/ha), after 48 hours
Experimental: Ctenocephalides felis—In-Vitro Contact Tests Adult Cat Flea
as §2
After the solvent has evaporated, each test tube is filled with 5-10 adult cat fleas (Ctenocephalides felis), closed with a perforated lid and incubated in a lying position at room temperature and relative humidity. After 48 hours efficacy is determined. The fleas are patted on the ground of the tubes and are incubated on a heating plate at 45-50° C. for at most 5 minutes. Immotile or uncoordinated moving fleas, which are not able to escape the heat by climbing upwards, are marked as dead or moribund.
An efficacy of 100% means all fleas are dead or moribund; 0% means no fleas are dead or moribund.

[8] = test system: green peach aphid (Myzus persicae); assay: Myzus persicae oral test; details: 120 h
Experimental: Myzus persicae—oral test • Solvent: 100 parts by weight acetone
To produce a suitable preparation of active compound, 1 part by weight of active compound is mixed with the stated amount of solvent, and the concentrate is diluted with water to the desired concentration. 50 μL compound solution is filled in microtiter plates and 150 μL IPL41 insect medium (33%+15% sugar) is added to obtain a total volume of 200 μL per well. Afterwards the plates are sealed with parafilm through which a mixed population of the green peach aphid (Myzus persicae) can suck on the compound preparation.
After 5 days mortality in % is determined. 100% means all aphids have been killed and 0% means none of the aphids have been killed.

[9] = test system: adult mosquitoes Aedes aegypti strain MONHEIM; assay: Aedes aegypti test (AEDSAE surface treatment & contact assay); details: 24 hours after contact, read-out: efficacy (mortality); for mortality at 4 mg/m2: surface concentration 4 mg/m^2, 30 min exposure; for mortality at 20 mg/m2: surface concentration 20 mg/m^2, 30 min exposure
Experimental: Aedes aegypti test (AEDSAE surface treatment & contact assay) • Solvent: Aceton+2000 ppm rapeseed oil methyl ester (RME)
In order to produce a sufficient, active ingredient containing solution it is necessary to solve the test compound in the solvent-mix (acetone at 2 mg/ml/RME 2000 ppm). This solution is pipetted onto a glazed tile and after evaporation of the acetone, adult mosquitoes of the species Aedes aegypti strain MONHEIM are placed onto the dried surface. The exposure time is 30 minutes.
(§3) Mortality in percent (%) is determined 24 hours after contact of the insects to the treated surface. 100% mortality means that all tested insects are dead, whereas 0% means that no insect died.

[10] = test system: adult flies Musca domestica strain WHO-N; assay: Musca domestica test (MUSCDO surface treatment & contact assay); details: 24 hours after contact, read-out: efficacy (mortality); for mortality at 20 mg/m2: surface concentration 20 mg/m^2, 30 min exposure; for mortality at 4 mg/m2: surface concentration 4 mg/m^2, 30 min exposure
Experimental: Musca domestica Test (MUSCDO Surface Treatment & Contact Assay) • Solvent: Aceton+2000 ppm rapeseed oil methyl ester (RME)
In order to produce a sufficient, active ingredient containing solution it is necessary to solve the test compound in the solvent-mix (acetone at 2 mg/ml/RME 2000 ppm). This solution is pipetted onto a glazed tile and after evaporation of the acetone, adult flies of the species Musca domestica strain WHO-N are placed onto the dried surface. The exposure time is 30 minutes.
as §3

[11] = test system: green peach aphid (Myzus persicae); assay: Myzus persicae spray test; details: foliar, 120 h, Chinese cabbage leaf disks, after 5 days
Summary of the method: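 Chinese cabbage leaf discs infested with all instars of the aphid were sprayed with compound prepared in acetone/DMF and diluted in water containing 1000 ppm emulsifier. Mortality (%) was scored after 5 days, 100% meaning all aphids killed and 0% none.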

[12] = test system: larvae of the southern green stink bug (Nezara viridula); assay: Nezara viridula spray test; details: in Hordeum vulgare, 96 h
Summary of the method: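 Barley plants sprayed with compound in acetone/dimethylformamide, diluted in water with 1000 ppm alkylarylpolyglycol ether emulsifier, then infested with Nezara viridula larvae. Percent mortality read after 4 days (100% = all killed, 0% = none).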

| SMILES | pest or weed control at 5 µg/cm2 [1] [%] | pest or weed control at 0.004 mg [2] [%] | mortality at 100 ppm [3] [%] | pest or weed control at 5 µg/cm2, 500 g/ha [4] [%] | pest or weed control at 32 µg/disc, 100 g/ha [5] [%] | mortality at 100 g/ha [6] [%] | efficacy (fleas dead or moribund) [7] [%] | mortality at 4 ppm [8] [%] | mortality at 4 mg/m2 [9] [%] | mortality at 20 mg/m2 [9] [%] | mortality at 20 mg/m2 [10] [%] | mortality at 4 mg/m2 [10] [%] | mortality at 100 g/ha [11] [%] | mortality at 500 g/ha [12] [%] | mortality at 100 g/ha [12] [%] |
| --- | --- | --- | --- | --- | --- | --- | --- | --- | --- | --- | --- | --- | --- | --- | --- |
| Cc1nc([C@H](C)NC(=O)c2cc(Cl)cc(Br)c2)n(-c2ncc(C#N)s2)n1 [I-12] | 100 | 100 | 100 | 100 | 100 | 100 |  |  |  |  |  |  |  |  |  |
| Cc1nc([C@H](C)NC(=O)c2cc(Cl)nc(C(F)(F)F)c2)n(-c2ncc(C#N)s2)n1 [I-20, 2-chloro-N-{(1S)-1-[1-(5-cyano-1,3-thiazol-2-yl)-3-methyl-1H-1,2,4-triazol-5-yl]ethyl}-6-(trifluoromethyl)isonicotinamide] | 100 | 100 | 100 | 100 | 100 |  |  |  |  |  |  |  |  |  |  |
| CC(NC(=O)c1cc(C(F)F)cc(C(F)F)c1)c1ncnn1-c1ncc(C#N)s1 (stereo not shown) [I-33] | 90 | 100 | 100 |  | 100 | 100 | 80 | 100 | 80 to 100 | 80 to 100 | 80 to 100 |  |  |  |  |
| CC(NC(=O)c1cc(OC(F)(F)F)cc(S(C)(=O)=O)c1)c1ncnn1-c1ncc(C#N)s1 (stereo not shown) [I-37] |  | 100 | 100 |  | 100 | 100 | 80 | 100 |  |  |  |  |  |  |  |
| C[C@H](NC(=O)c1cc(Br)cc(OC(F)F)c1)c1ncnn1-c1ncc(C#N)s1 [I-39] | 90 | 100 | 100 |  | 100 | 100 | 80 | 100 |  | 80 to 100 | 80 to 100 | 90 to 100 |  |  |  |
| C[C@H](NC(=O)c1cc(Br)cc(C(C)(F)F)c1)c1ncnn1-c1ncc(C#N)s1 [I-47] | 90 |  |  |  | 100 | 100 |  |  | 80 to 100 | 80 to 100 | 80 to 100 | 90 to 100 | 90 |  |  |
| C[C@H](NC(=O)c1cc(Cl)cc(C2(C#N)CC2)c1)c1ncnn1-c1ncc(C#N)s1 [I-52] |  |  |  |  | 100 | 100 |  |  |  | 80 to 100 | 80 to 100 | 90 to 100 | 100 | 100 |  |
| CC(NC(=O)c1cc(C(F)(F)F)cc(S(C)(=O)=O)c1)c1ncnn1-c1ncc(C#N)s1 (stereo not shown) [I-82] | 90 | 100 | 100 |  | 80 | 100 | 80 | 100 |  |  |  |  |  |  | 90 |
| Cc1nc([C@H](C)NC(=O)c2cc(C(F)(F)F)cc(S(C)(=O)=O)c2)n(-c2ncc(C(=O)N(C)C)s2)n1 [I-83] |  | 100 | 100 |  |  |  | 80 | 100 |  |  |  |  |  |  |  |
| Cc1nc([C@H](C)NC(=O)c2cc(C(F)(F)F)cc(C(F)(F)F)c2)n(-c2ncc(C#N)s2)n1 [I-90] |  |  |  |  | 100 | 100 |  |  | 80 to 100 |  | 80 to 100 | 90 to 100 | 90 |  |  |
| C[C@H](NC(=O)c1cc(Br)cc(C(C)(C)F)c1)c1ncnn1-c1ncc(C#N)s1 [I-99] |  |  |  |  | 100 | 100 |  |  | 80 to 100 | 80 to 100 | 80 to 100 | 90 to 100 | 100 | 100 | 100 |
